Experimental data from paper PMC6943536, “Free and Bound Phenolics of Buckwheat Varieties: HPLC Characterization, Antioxidant Activity, and Inhibitory Potency towards α-Glucosidase with Molecular Docking Analysis” (Antioxidants, 2019).
Values after ≈ are worked out from the molar mass of the structure shown.

Target: T1, α-glucosidase
T1 construct: gene MAL12; PDB 3A4A isomaltase is only a docking homologue
Assay: pNPG hydrolysis, absorbance […] nm
Format: biochemical, Saccharomyces cerevisiae
Settings: 5 mM p-NPG stock (100 µL of 250 µL), 0.1 M phosphate buffer pH 6.8, 37 °C, 10 min preincubation

O=C1c2c(O)cc(O)cc2O[C@H](c2cc(O)c(O)c(O)c2)[C@H]1O [dihydromyricetin]
IC50: 114.45 ± 0.31 µg/mL (≈ 357 µM)

C[C@@H]1O[C@@H](OC[C@H]2O[C@@H](Oc3c(-c4ccc(O)cc4)oc4cc(O)cc(O)c4c3=O)[C@H](O)[C@@H](O)[C@@H]2O)[C@H](O)[C@H](O)[C@H]1O [kaempferol-3-O-rutinoside]
IC50: 447.50 ± 17.27 µg/mL (≈ 753 µM)
